Data as given in ChEMBL document CHEMBL5233269, “Anticancer potential of spirocompounds in medicinal chemistry: A pentennial expedition” (Eur J Med Chem, 2021).
Blank lines part the entries; values can stand above or below the compound they belong to.

Columns and labels:
[1] = tested on: MCF7; assay: Anticancer activity against human MCF7 cells at 10 uM by MTT assay relative to control; format: functional
[2] = tested on: HepG2; assay: Anticancer activity against human HepG2 cells; format: functional, cell-based
[3] = tested on: MCF7; assay: Anticancer activity against human MCF7 cells assessed as inhibition of cell viability; format: functional, cell-based
[4] = Antiproliferative activity against human […] cells measured after 48 hrs by MTT assay; format: functional, cell-based
[5] = tested on: MCF7; assay: Antiproliferative activity against human MCF7 cells measured after 48 hrs by MTT assay; format: functional, cell-based; settings: MCF7, 48 h
[6] = tested on: HeLa; assay: Antiproliferative activity against human HeLa cells measured after 48 hrs by MTT assay; format: functional, cell-based
[7] = tested on: HL-60; assay: Antiproliferative activity against human HL-60 cells measured after 48 hrs by MTT assay; format: functional, cell-based; settings: HL-60, 48 h
[8] = tested on: SW480; assay: Antiproliferative activity against human SW480 cells measured after 48 hrs by MTT assay; format: functional, cell-based; settings: SW480, 48 h
[9] = tested on: HepG2; assay: Antiproliferative activity against human HepG2 cells measured after 48 hrs by MTT assay; format: functional, cell-based; settings: HepG2, 48 h
[10] = tested on: HT-29; assay: Antiproliferative activity against human HT-29 cells measured after 48 hrs by MTT assay; format: functional, cell-based; settings: HT-29, 48 h
[11] = tested on: A549; assay: Antiproliferative activity against human A549 cells measured after 48 hrs by MTT assay; format: functional, cell-based; settings: A549, 48 h
[12] = tested on: HepG2; assay: Antiproliferative activity against human HepG2 cells by MTT assay; format: functional, cell-based
[13] = tested on: L02; assay: Antiproliferative activity against human L02 cells by MTT assay; format: functional, cell-based
[14] = tested on: B16-F10; assay: Anticancer activity against mouse B16-F10 cells incubated for 48 hrs by MTT assay; format: functional, cell-based; settings: B16-F10, 48 h
[15] = tested on: A549; assay: Anticancer activity against human A549 cells assessed as reduction in cell viability incubated for 48 hrs by MTT assay; format: functional, cell-based; settings: A549, 48 h
[16] = tested on: MCF7; assay: Anticancer activity against human MCF7 cells assessed as reduction in cell viability incubated for 48 hrs by MTT assay; format: functional, cell-based; settings: MCF7, 48 h
[17] = tested on: HeLa; assay: Anticancer activity against human HeLa cells; format: functional, cell-based
[18] = tested on: A549; assay: Anticancer activity against human A549 cells assessed as inhibition of cell proliferation; format: functional, cell-based
[19] = tested on: MCF7; assay: Anticancer activity against human MCF7 cells; format: functional, cell-based
[20] = tested on: DU-145; assay: Anticancer activity against human DU-145 cells; format: functional, cell-based
[21] = tested on: MCF7; assay: Inhibition of cell proliferation in human MCF7 cells; format: functional, cell-based
[22] = Inhibition of cell proliferation in human MCF-10A cells at 50 uM by MTT colorimetric cell viability assay relative to control; format: toxicity, cell-based
[23] = tested on: HCT-116; assay: Anticancer activity against human HCT-116 cells assessed as inhibition of cell growth; format: functional, cell-based
[24] = tested on: PC-3; assay: Anticancer activity against human PC-3 cells assessed as inhibition of cell growth; format: functional, cell-based
[25] = tested on: HepG2; assay: Anticancer activity against human HepG2 cells assessed as inhibition of cell viability; format: functional, cell-based
[26] = target: T1, Amine oxidase [flavin-containing] A (Rattus norvegicus, UniProt P21396); assay: Inhibition of rat brain MAO-A relative to control; format: tissue-based
T1 sequence (P21396 whole entry): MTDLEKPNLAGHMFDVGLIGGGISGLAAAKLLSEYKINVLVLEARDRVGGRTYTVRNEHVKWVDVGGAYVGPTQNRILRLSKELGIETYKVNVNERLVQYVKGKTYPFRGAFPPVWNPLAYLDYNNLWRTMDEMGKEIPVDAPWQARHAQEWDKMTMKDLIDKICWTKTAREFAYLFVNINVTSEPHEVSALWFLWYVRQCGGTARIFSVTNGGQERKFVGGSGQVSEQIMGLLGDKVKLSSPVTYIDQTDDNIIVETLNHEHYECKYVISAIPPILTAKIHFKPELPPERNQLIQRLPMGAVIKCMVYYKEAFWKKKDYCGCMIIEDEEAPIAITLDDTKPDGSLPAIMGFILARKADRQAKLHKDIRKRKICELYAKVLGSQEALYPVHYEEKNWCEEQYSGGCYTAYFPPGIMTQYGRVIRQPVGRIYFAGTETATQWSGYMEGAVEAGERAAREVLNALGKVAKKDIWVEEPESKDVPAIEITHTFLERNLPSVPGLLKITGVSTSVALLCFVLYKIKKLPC

[27] = tested on: Ehrlich; assay: Antitumor activity against mouse Ehrlich ascites carcinoma xenografted in mouse model assessed tumor growth inhibition relative to control; format: functional; parameters: scale not given: the % may be the effect or the level left
[28] = tested on: Sarcoma-180; assay: Antitumor activity against mouse Sarcoma-180 xenografted in mouse model assessed tumor growth inhibition relative to control; format: functional; parameters: scale not given: the % may be the effect or the level left

SMILES: CC(=O)N1C(=O)C2(C(C#N)=C(N)Oc3n[nH]c(C)c32)c2ccccc21 (centres undefined)
inhibition at 10 µM [1]: 26.5%

IC50 [2]: 39 µM
IC50 [3]: 32 µM
SMILES: N#CC1=C(N)NC2=C(CCCCCC2)C12C(=O)Nc1ccccc12 (centres undefined)

IC50 [5]: 3.24 µM
IC50 [6]: 5.23 µM
IC50 [7]: 5.17 µM
IC50 [8]: 2.33 µM
IC50 [9]: 5.37 µM
IC50 [10]: 4.63 µM
IC50 [11]: 3.43 µM
SMILES: CC(C)CCC[C@@H](C)[C@@H]1CCC2C3C[C@@]4(N=C5C=CC(Cl)=CN5/C4=N\Cc4ccccc4)C4C[C@@H](Cl)CC[C@]4(C)C3CC[C@@]21C (some centres undefined)
IC50 [4]: 4.67 µM

IC50 [12]: 3.03 µM
SMILES: O=C1C(=O)C2C(N=C3N=NNN3C23C(=O)Nc2c(Cl)cccc23)c2ccccc21 (centres undefined)
IC50 [13]: 49.5 µM

IC50 [2]: 36 µM
IC50 [3]: 28 µM
SMILES: Cc1ccc2c(c1)C1(C(=O)N2)C(C#N)=C(N)NC2=C1CCCC2 (centres undefined)

IC50 [14]: 9.63 µM
IC50 [15]: 10.4 µM
IC50 [16]: 12.3 µM
SMILES: COC1=CC2(C=C(C(=O)Oc3c(F)cc(F)cc3F)c3cc(OC)cc(OC)c32)C(OC)=CC1=O (centres undefined)

IC50 [17]: 15.9 µM
IC50 [18]: 3.89 µM
IC50 [19]: 9.28 µM
IC50 [20]: 2.19 µM
SMILES: O=C1OCC2Nc3ccccc3NC3(C(=O)N(Cc4ccccc4)c4ccc(Cl)cc43)C12 (centres undefined)

IC50 [17]: 9.58 µM
IC50 [18]: 1.55 µM
IC50 [19]: 2.14 µM
IC50 [20]: 1.35 µM
SMILES: Cc1ccc2c(c1)C1(Nc3ccccc3NC3COC(=O)C31)C(=O)N2 (centres undefined)

IC50 [12]: 2.86 µM
SMILES: O=C1C(=O)C2C(N=C3N=NNN3C23C(=O)Nc2ccc(F)cc23)c2ccccc21 (centres undefined)
IC50 [13]: 58.9 µM

IC50 [14]: 10.9 µM
IC50 [15]: 9.58 µM
IC50 [16]: 13.1 µM
SMILES: COC1=CC2(C=C(C(=O)Oc3cccc(F)c3F)c3cc(OC)cc(OC)c32)C(OC)=CC1=O (centres undefined)

EC50 [21]: 6 µM
SMILES: O=C1Nc2ccccc2C12CCNC2c1cccc(F)c1 (centres undefined)
inhibition at 50 µM [22]: 4.48%

IC50 [23]: 0.107 µM
IC50 [24]: 9.49 µM
IC50 [25]: 0.599 µM
SMILES: CC1CCC2(CC1)SC/C(=N\c1nnc(SC3OC[C@@H](O)[C@H](O)[C@H]3O)s1)N2c1ccc(F)cc1 (some centres undefined)

IC50 [12]: 7.9 µM
SMILES: O=C1C(=O)C2C(N=C3N=NNN3C23C(=O)Nc2c(C(F)(F)F)cccc23)c2ccccc21 (centres undefined)
IC50 [13]: 49.9 µM

IC50 [5]: 4.8 µM
IC50 [6]: 3.84 µM
IC50 [7]: 5.07 µM
IC50 [8]: 5.21 µM
IC50 [9]: 4.24 µM
IC50 [10]: 3.1 µM
IC50 [11]: 2.62 µM
SMILES: CC(C)CCC[C@@H](C)[C@@H]1CCC2C3C[C@@]4(N=C5C=CC=CN5/C4=N\c4ccccc4)C4CCCC[C@]4(C)C3CC[C@@]21C (some centres undefined)
IC50 [4]: 5.38 µM

IC50 [5]: 3.93 µM
IC50 [6]: 5.41 µM
IC50 [7]: 2.62 µM
IC50 [8]: 3.42 µM
IC50 [9]: 5.32 µM
IC50 [10]: 2.18 µM
IC50 [11]: 3.09 µM
SMILES: CC(C)CCC[C@@H](C)[C@@H]1CCC2C3C[C@@]4(N=C5C=CC=CN5/C4=N\c4ccccc4)C4C[C@@H](Cl)CC[C@]4(C)C3CC[C@@]21C (some centres undefined)
IC50 [4]: 3.17 µM

SMILES: COC(=O)c1[nH]nc2c1C1(C(=O)N(C(C)=O)c3ccccc31)C(C#N)=C(N)O2 (centres undefined)
inhibition at 10 µM [1]: 23.2%

SMILES: Cc1coc2c1C(=O)C(=O)c1c-2ccc2c1CCCC2(C)C [TANSHINONE IIA]
IC50 [13]: 65.3 µM

inhibition (INH) [26]: 32%
SMILES: CCn1c(SCC(=O)Nc2ccccc2)nc2c(c1=O)C1(CCCCC1)Cc1ccccc1-2
Activity [27]: 75%
Activity [28]: 55%

IC50 [2]: 26 µM
IC50 [3]: 28 µM
SMILES: N#CC1=C(N)NC2=C(CCCC2)C12C(=O)Nc1ccc(I)cc12 (centres undefined)

inhibition (INH) [26]: 50%
SMILES: CCn1c(SCc2ccc(Cl)cc2)nc2c(c1=O)C1(CCCCC1)Cc1ccccc1-2
Activity [27]: 56%
Activity [28]: 40%
